Measured values as given in patent US7135466B2 (Kirin Beer Kabushiki Kaisha, priority 1999, dated 2006).

target: T1, c-kit (Homo sapiens, UniProt P10721); experiment: Inhibitory activity against c-kit autophosphorylation (MO7e cells, h-SCF); type: cell-based; details: MO7e cells, h-SCF stimulation; read-out: c-kit IC50
T1 construct: MO7e (human megakaryocytic leukemia cell line) which had been arrested for 20 hr; endogenous in cells; host or cells: MO7e human megakaryocytic leukemia cell line
Procedure, shortened: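 Growth-arrested (20 hr) MO7e; cpd in DMSO, 1 hr; h-SCF 50 ng/ml, 5 min; lyse. ELISA: anti-pTyr (PY-20) capture, anti-c-kit 1° Ab, HRP anti-rabbit 2° Ab, A450.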

T1 sequence (P10721 26-976): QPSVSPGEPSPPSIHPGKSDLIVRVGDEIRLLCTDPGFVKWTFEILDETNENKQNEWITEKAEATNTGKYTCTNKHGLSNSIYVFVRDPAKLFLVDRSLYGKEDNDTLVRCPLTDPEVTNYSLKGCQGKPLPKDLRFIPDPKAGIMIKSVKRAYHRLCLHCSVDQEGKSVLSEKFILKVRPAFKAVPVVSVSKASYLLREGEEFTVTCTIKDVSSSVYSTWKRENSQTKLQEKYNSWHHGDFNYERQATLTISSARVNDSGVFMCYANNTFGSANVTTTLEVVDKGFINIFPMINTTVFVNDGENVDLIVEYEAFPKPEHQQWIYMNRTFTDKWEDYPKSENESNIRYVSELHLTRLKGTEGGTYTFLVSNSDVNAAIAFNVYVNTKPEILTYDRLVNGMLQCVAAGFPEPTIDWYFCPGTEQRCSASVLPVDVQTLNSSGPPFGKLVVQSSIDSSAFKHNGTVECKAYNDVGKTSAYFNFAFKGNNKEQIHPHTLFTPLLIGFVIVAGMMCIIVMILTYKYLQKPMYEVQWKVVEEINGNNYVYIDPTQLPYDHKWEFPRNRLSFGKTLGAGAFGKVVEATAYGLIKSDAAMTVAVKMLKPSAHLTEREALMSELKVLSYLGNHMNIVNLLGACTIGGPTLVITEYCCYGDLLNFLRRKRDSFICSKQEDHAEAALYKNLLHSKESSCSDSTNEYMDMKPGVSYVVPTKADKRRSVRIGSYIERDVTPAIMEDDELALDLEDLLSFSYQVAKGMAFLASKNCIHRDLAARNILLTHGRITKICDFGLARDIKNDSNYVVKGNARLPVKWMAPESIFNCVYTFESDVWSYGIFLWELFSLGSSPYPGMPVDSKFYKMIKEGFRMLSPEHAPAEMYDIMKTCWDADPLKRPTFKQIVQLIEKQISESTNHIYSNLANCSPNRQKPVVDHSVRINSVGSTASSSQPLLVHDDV

IC50 [nM] | Structure (SMILES)
532 | COc1cc2nccc(Oc3ccc(NC(=S)NC(=O)c4ccc(F)cc4)cc3F)c2cc1OC [Example 972, N-{4-[(6,7-Dimethoxy-4-quinolyl)oxy]-3-fluorophenyl}-N′-(4-fluorobenzoyl)thiourea]
290 | COc1cc2nccc(Oc3ccc(NC(=S)NC(=O)c4ccc([N+](=O)[O-])cc4)cc3F)c2cc1OC [Example 975, N-{4-[(6,7-Dimethoxy-4-quinolyl)oxy]-3-fluorophenyl}-N′-(4-nitrobenzoyl)thiourea]
788 | COc1ccc(C(=O)NC(=S)Nc2ccc(Oc3ccnc4cc(OC)c(OC)cc34)c(F)c2)cc1 [Example 976, N-{4-[(6,7-Dimethoxy-4-quinolyl)oxy]-3-fluorophenyl}-N′-(4-methoxybenzoyl)thiourea]
824 | COc1cc2nccc(Oc3ccc(NC(=S)NC(=O)c4ccc(C)cc4)cc3Cl)c2cc1OC [Example 977, N-{3-Chloro-4-[(6,7-dimethoxy-4-quinolyl)oxy]phenyl}-N′-(4-methylbenzoyl)thiourea]
811 | COc1cc2nccc(Oc3ccc(NC(=S)NC(=O)c4ccc(Br)cc4)cc3Cl)c2cc1OC [Example 980, N-(4-Bromobenzoyl)-N′-{3-chloro-4-[(6,7-dimethoxy-4-quinolyl)oxy]phenyl}thiourea]
481 | CCOc1ccc(C(=O)NC(=S)Nc2ccc(Oc3ccnc4cc(OC)c(OC)cc34)c(F)c2)cc1 [Example 990, N-{4-[(6,7-Dimethoxy-4-quinolyl)oxy]-3-fluorophenyl}-N′-(4-ethoxybenzoyl)thiourea]
181 | COc1cc2nccc(Oc3ccc(NC(=S)NC(=O)c4ccc(F)cc4F)cc3)c2cc1OC [Example 1006, N-(2,4-Difluorobenzoyl)-N′-{4-[(6,7-dimethoxy-4-quinolyl)oxy]phenyl}thiourea]
357 | COc1cc2nccc(Oc3ccc(NC(=S)NC(=O)c4ccc(Cl)cc4Cl)cc3)c2cc1OC [Example 1008, N-(2,4-Dichlorobenzoyl)-N′-{4-[(6,7-dimethoxy-4-quinolyl)oxy]phenyl}thiourea]
195 | COc1cc2nccc(Oc3ccc(NC(=S)NC(=O)c4cc(Cl)cc(Cl)c4)cc3F)c2cc1OC [Example 1015, N-(3,5-Dichlorobenzoyl)-N′-{4-[(6,7-dimethoxy-4-quinolyl)oxy]-3-fluorophenyl}thiourea]

More lines, now with the values behind:

Structure (SMILES) | IC50 [nM]
COc1cc2ncnc(Oc3ccc(NC(=S)NC(=O)c4ccc(F)cc4)cc3)c2cc1OC [Example 986, N-{4-[(6,7-Dimethoxy-4-quinazolinyl)oxy]phenyl}-N′-(4-fluorobenzoyl)thiourea] | 264
CCOc1ccc(C(=O)NC(=S)Nc2ccc(Oc3ccnc4cc(OC)c(OC)cc34)c(Cl)c2)cc1 [Example 992, N-{3-Chloro-4-[(6,7-dimethoxy-4-quinolyl)oxy]phenyl}-N′-(4-ethoxybenzoyl)thiourea] | 766
COc1cc2nccc(Oc3ccc(NC(=S)NC(=O)c4c(F)cccc4F)cc3)c2cc1OC [Example 1007, N-(2,6-Difluorobenzoyl)-N′-{4-[(6,7-dimethoxy-4-quinolyl)oxy]phenyl}thiourea] | 616
COc1ccc(C(=O)NC(=S)Nc2ccc(Oc3ccnc4cc(OC)c(OC)cc34)cc2)cc1OC [Example 1010, N-(3,4-Dimethoxybenzoyl)-N′-{4-[(6,7-dimethoxy-4-quinolyl)oxy]phenyl}thiourea] | 78
COc1cc2nccc(Oc3ccc(NC(=S)NC(=O)CCc4ccccc4)c(F)c3)c2cc1OC [Example 1026, N-{4-[(6,7-Dimethoxy-4-quinolyl)oxy]-2-fluorophenyl}-N′-(3-phenylpropanoyl)thiourea] | 652
COc1cc2nccc(Oc3ccc(NC(=S)NC(=O)CCC4CCCC4)c(F)c3)c2cc1OC [Example 1027, N-(3-Cyclopentylpropanoyl)-N′-{4-[(6,7-dimethoxy-4-quinolyl)oxy]-2-fluorophenyl}thiourea] | 161
COc1cc2nccc(Oc3ccc(NC(=S)NC(=O)c4ccco4)cc3)c2cc1OC [Example 1033, N-{4-[(6,7-Dimethoxy-4-quinolyl)oxy]phenyl}-N′-(2-furylcarbonyl)thiourea] | 177
COc1cc2nccc(Oc3ccc(NC(=S)NC(=O)c4ccsc4)cc3)c2cc1OC [Example 1034, N-{4-[(6,7-Dimethoxy-4-quinolyl)oxy]phenyl}-N′-(3-thienylcarbonyl)thiourea] | 378
COc1cc2nccc(Oc3ccc(NC(=S)NC(=O)c4cc(C)oc4C)c(F)c3)c2cc1OC [Example 1037, N-{4-[(6,7-Dimethoxy-4-quinolyl)oxy]-2-fluorophenyl}-N′-[(2,5-dimethyl-3-furyl)carbonyl]-thiourea] | 558

same assay, conditions: Mo7e, figure in parentheses in −( ); at 1000 nM

inhibition at 1 µM [%] | Structure (SMILES)
0 | COc1cc2nccc(Oc3ccc(NC(=S)NC(=O)c4ccc(Br)cc4)cc3F)c2cc1OC [Example 973, N-(4-Bromobenzoyl)-N′-{4-[(6,7-dimethoxy-4-quinolyl)oxy]-3-fluorophenyl}thiourea]
34 | COc1cc2nccc(Oc3ccc(NC(=S)NC(=O)c4ccc(I)cc4)cc3F)c2cc1OC [Example 974, N-{4-[(6,7-Dimethoxy-4-quinolyl)oxy]-3-fluorophenyl}-N′-(4-iodobenzoyl)thiourea]
22 | COc1cc2nccc(Oc3ccc(NC(=S)NC(=O)c4ccc(Cl)cc4)cc3Cl)c2cc1OC [Example 978]
25 | COc1cc2nccc(Oc3ccc(NC(=S)NC(=O)c4ccc(F)cc4)cc3Cl)c2cc1OC [Example 979, N-{3-Chloro-4-[(6,7-dimethoxy-4-quinolyl)oxy]phenyl}-N′-(4-fluorobenzoyl)thiourea]
47 | COc1cc2nccc(Oc3ccc(NC(=S)NC(=O)c4ccc(I)cc4)cc3Cl)c2cc1OC [Example 981, N-{3-Chloro-4-[(6,7-dimethoxy-4-quinolyl)oxy]phenyl}-N′-(4-iodobenzoyl)thiourea]
39 | COc1ccc(C(=O)NC(=S)Nc2ccc(Oc3ccnc4cc(OC)c(OC)cc34)c(Cl)c2)cc1 [Example 983, N-{3-Chloro-4-[(6,7-dimethoxy-4-quinolyl)oxy]phenyl}-N′-(4-methoxybenzoyl)thiourea]
20 | COc1cc2nccc(Oc3ccc(NC(=S)NC(=O)c4ccc(Cl)cc4Cl)c(F)c3)c2cc1OC [Example 1011, N-(2,4-Dichlorobenzoyl)-N′-{4-[(6,7-dimethoxy-4-quinolyl)oxy]-2-fluorophenyl}thiourea]
24 | COc1cc2nccc(Oc3ccc(NC(=S)NC(=O)c4c(Cl)cccc4Cl)c(F)c3)c2cc1OC [Example 1012, N-(2,6-Dichlorobenzoyl)-N′-{4-[(6,7-dimethoxy-4-quinolyl)oxy]-2-fluorophenyl}thiourea]
22 | COc1cc2nccc(Oc3ccc(NC(=S)NC(=O)c4ccc(F)cc4F)cc3F)c2cc1OC [Example 1013, N-(2,4-Difluorobenzoyl)-N′-{4-[(6,7-dimethoxy-4-quinolyl)oxy]-3-fluorophenyl}thiourea]
30 | COc1cc2nccc(Oc3ccc(NC(=S)NC(=O)c4ccc(Cl)cc4Cl)cc3F)c2cc1OC [Example 1014, N-(2,4-Dichlorobenzoyl)-N′-{4-[(6,7-dimethoxy-4-quinolyl)oxy]-3-fluorophenyl}thiourea]
11 | COc1cc2nccc(Oc3ccc(NC(=S)NC(=O)c4c(F)cccc4F)cc3Cl)c2cc1OC [Example 1020, N-{3-Chloro-4-[(6,7-dimethoxy-4-quinolyl)oxy]phenyl}-N′-(2,6-difluorobenzoyl)thiourea]

Continued, compound first:

Structure (SMILES) | inhibition at 1 µM [%]
COc1cc2nccc(Oc3ccc(NC(=S)NC(=O)c4ccc([N+](=O)[O-])cc4)cc3Cl)c2cc1OC [Example 982, N-{3-Chloro-4-[(6,7-dimethoxy-4-quinolyl)oxy]phenyl}-N′-(4-nitrobenzoyl)thiourea] | 18
COc1cc2ncnc(Oc3ccc(NC(=S)NC(=O)c4ccc(C)cc4)cc3)c2cc1OC [Example 984, N-{4-[(6,7-Dimethoxy-4-quinazolinyl)oxy]phenyl}-N′-(4-methylbenzoyl)thiourea] | 30
COc1cc2ncnc(Oc3ccc(NC(=S)NC(=O)c4ccc(Cl)cc4)cc3)c2cc1OC [Example 985, N-(4-Chlorobenzoyl)-N′-{4-[(6,7-dimethoxy-4-quinazolinyl)oxy]phenyl}thiourea] | 31
COc1cc2ncnc(Oc3ccc(NC(=S)NC(=O)c4ccc([N+](=O)[O-])cc4)cc3)c2cc1OC [Example 987, N-{4-[(6,7-Dimethoxy-4-quinazolinyl)oxy]phenyl}-N′-(4-nitrobenzoyl)thiourea] | 32
COc1ccc(C(=O)NC(=S)Nc2ccc(Oc3ncnc4cc(OC)c(OC)cc34)cc2)cc1 [Example 988, N-{4-[(6,7-Dimethoxy-4-quinazolinyl)oxy]phenyl}-N′-(4-methoxybenzoyl)thiourea] | 33
CCc1ccc(C(=O)NC(=S)Nc2ccc(Oc3ccnc4cc(OC)c(OC)cc34)cc2F)cc1 [Example 993, N-{4-[(6,7-Dimethoxy-4-quinolyl)oxy]-2-fluorophenyl}-N′-(4-ethylbenzoyl)thiourea] | 35
COc1cc2ncnc(Oc3ccc(NC(=S)NC(=O)c4ccc(F)cc4F)cc3)c2cc1OC [Example 1021, N-(2,4-Difluorobenzoyl)-N′-{4-[(6,7-dimethoxy-4-quinazolinyl)oxy]phenyl}thiourea] | 38
COc1cc2nccc(Oc3ccc(NC(=S)NC(=O)c4ccco4)c(F)c3)c2cc1OC [Example 1035, N-{4-[(6,7-Dimethoxy-4-quinolyl)oxy]-2-fluorophenyl}-N′-(2-furylcarbonyl)thiourea] | 17
COc1cc2nccc(Oc3ccc(NC(=S)NC(=O)c4ccsc4)c(F)c3)c2cc1OC [Example 1036, N-{4-[(6,7-Dimethoxy-4-quinolyl)oxy]-2-fluorophenyl}-N′-(3-thienylcarbonyl)thiourea] | 29
